pIC50: −log10 of the molar value.
Tested on: Escherichia coli BL21 Δ7 cells
Assay: cells
Format: cell-based
Conditions: BL21, 5 h, read-out: IC50 (toxic to cell growth)

COc1cccc2c1C(=O)c1c(O)c3c(c(O)c1C2=O)C[C@@](O)(C(=O)CO)C[C@@H]3O[C@H]1C[C@H](N)[C@H](O)[C@H](C)O1 [Doxorubicin, doxorubicin]
pIC50: ~6.00

Reference: article PMC3842230 (Biochemistry, 2013)
